Results published in the supplement of paper PMC11061612.

Assays:
Assay in all cases: Bliss excess, mean over the matrix (fraction); higher = more synergy
[1] = test system: SAT (Head and Neck Carcinoma)
Summary of the method: (§1)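 Cell lines in DMEM/F12 or RPMI with 10% FBS were plated in 1536-well plates, held 24 hours at 37°C, 5% CO2, then given two-drug dose matrices for 72 hours (DMSO typically 0.2%). Viability was read by CellTiter-Glo 2.0 luminescence and scaled as inhibition from 0 (vehicle wells) to 1 (blank wells). Combination Emax is the second-highest inhibition in the matrix; Bliss excess is observed combination effect minus expected EA + EB − EA·EB, EA and EB being single-agent effects.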

[2] = test system: SNU-423 (Hepatocellular Carcinoma)
Summary of the method: as §1

[3] = test system: AM-38 (Glioblastoma)
Summary of the method: as §1

[4] = test system: SK-N-SH (Neuroblastoma)
Summary of the method: as §1

[5] = test system: RCC-JW (Kidney Carcinoma)
Summary of the method: as §1

[6] = test system: NMC-G1 (Low Grade Glioma)
Summary of the method: as §1

[7] = test system: OAW-28 (Ovarian Carcinoma)
Summary of the method: as §1

[8] = test system: SiHa (Cervical Carcinoma)
Summary of the method: as §1

[9] = test system: IA-LM (Non-Small Cell Lung Carcinoma)
Summary of the method: as §1

[10] = test system: SK-CO-1 (Colorectal Carcinoma)
Summary of the method: as §1

[11] = test system: P30-OHK (B-Lymphoblastic Leukemia)
Summary of the method: as §1

[12] = test system: CL-11 (Colorectal Carcinoma)
Summary of the method: as §1

[13] = test system: KP-4 (Pancreatic Carcinoma)
Summary of the method: as §1

[14] = test system: MOLT-13 (T-Lymphoblastic Leukemia)
Summary of the method: as §1

Row | Structure (SMILES) | Bliss excess [1] | Bliss excess [2] | Bliss excess [3] | Bliss excess [4] | Bliss excess [5] | Bliss excess [6] | Bliss excess [7] | Bliss excess [8] | Bliss excess [9] | Bliss excess [10] | Bliss excess [11] | Bliss excess [12] | Bliss excess [13] | Bliss excess [14]
1 | CN(CCO)CC[C@H](CSc1ccccc1)Nc1ccc(S(=O)(=O)NC(=O)c2ccc(N3CCC([C@@H](O)c4ccccc4-c4ccc(Cl)cc4)CC3)cc2)cc1S(=O)(=O)C(F)(F)F [AZD4320] + C[C@@H](Nc1cc(F)cc(F)c1)c1cc(C(=O)N(C)C)cc2c(=O)cc(N3CCOCC3)oc12 [AZD8186] (first compound max 1 µM, 7x7, partner max 3 µM) | -0.0231 | -0.0628 | -0.0033 | -0.071 | 0.0478 | 0.0254 | 0.0055 | -0.0165 | 0.0085 | -0.051 | 0.0647 | -0.0011 | 0.0087 | 0.0093
2 | CC1(C)CCC(CN2CCN(c3ccc(C(=O)NS(=O)(=O)c4ccc(NCC5CCOCC5)c([N+](=O)[O-])c4)c(Oc4cnc5[nH]ccc5c4)c3)CC2)=C(c2ccc(Cl)cc2)C1 [Venetoclax] + Cc1cc2ncnn2cc1Nc1ncc2c(n1)n(C1CCOCC1)c(=O)n2C [AZD7648] (first compound max 1 µM, 7x7, partner max 10 µM) | -0.0171 | -0.111 | -0.0098 | -0.0125 | -0.0431 | -0.0508 | 0.0005 | -0.0549 | 0.0086 | -0.018 | 0.0584 | -0.0255 | -0.061 | 0.063
3 | CN(CCO)CC[C@H](CSc1ccccc1)Nc1ccc(S(=O)(=O)NC(=O)c2ccc(N3CCC([C@@H](O)c4ccccc4-c4ccc(Cl)cc4)CC3)cc2)cc1S(=O)(=O)C(F)(F)F [AZD4320] + C1CN(CCC1(C(=O)N[C@@H](CCO)C2=CC=C(C=C2)Cl)N)C3=NC=NC4=C3C=CN4 [Capivasertib] (first compound max 1 µM, 7x7, partner max 3 µM) | -0.0363 | -0.0338 | -0.0484 | -0.0363 | -0.0559 | -0.0838 | -0.0345 | -0.0476 | -0.0888 | -0.0462 | 0.0169 | -0.0496 | -0.0436 | -0.0371
4 | CC1(C)CCC(CN2CCN(c3ccc(C(=O)NS(=O)(=O)c4ccc(NCC5CCOCC5)c([N+](=O)[O-])c4)c(Oc4cnc5[nH]ccc5c4)c3)CC2)=C(c2ccc(Cl)cc2)C1 [Venetoclax] + C1CN(CCC1(C(=O)N[C@@H](CCO)C2=CC=C(C=C2)Cl)N)C3=NC=NC4=C3C=CN4 [Capivasertib] (first compound max 1 µM, 7x7, partner max 3 µM) | -0.0422 | -0.0386 | -0.0742 | -0.0998 | -0.0312 | -0.0683 | -0.0123 | -0.002 | -0.057 | -0.0247 | 0.058 | -0.0205 | -0.0623 | 0.0354
5 | CN(CCO)CC[C@H](CSc1ccccc1)Nc1ccc(S(=O)(=O)NC(=O)c2ccc(N3CCC([C@@H](O)c4ccccc4-c4ccc(Cl)cc4)CC3)cc2)cc1S(=O)(=O)C(F)(F)F [AZD4320] + CN(C)CCCOc1ccc(-c2ccc3ncc4c(c3c2)n(C2CCOCC2)c(=O)n4C)cn1 [AZD0156] (first compound max 1 µM, 7x7, partner max 1 µM) | -0.0214 | -0.0727 | 0.112 | -0.0439 | -0.0301 | -0.0362 | -0.0218 | -0.0537 | -0.0239 | -0.0758 | 0.0275 | -0.0441 | -0.0604 | 0.0257
6 | COc1cccc2c1C(=O)c1c(O)c3c(c(O)c1C2=O)C[C@@](O)(C(=O)CO)C[C@@H]3O[C@H]1C[C@H](N)[C@H](O)[C@H](C)O1 [Doxorubicin] + Cc1cc2ncnn2cc1Nc1ncc2c(n1)n(C1CCOCC1)c(=O)n2C [AZD7648] (first compound max 1 µM, 7x7, partner max 10 µM) | 0.0764 | 0.0414 | 0.114 | 0.0605 | 0.0352 | -0.0029 | 0.0209 | 0.0142 | 0.0044 | -0.0163 | 0.129 | 0.0863 | 0.0583 | 0.209
7 | CC1(C)CCC(CN2CCN(c3ccc(C(=O)NS(=O)(=O)c4ccc(NCC5CCOCC5)c([N+](=O)[O-])c4)c(Oc4cnc5[nH]ccc5c4)c3)CC2)=C(c2ccc(Cl)cc2)C1 [Venetoclax] + C=CCn1c(=O)c2cnc(Nc3ccc(N4CCN(C)CC4)cc3)nc2n1-c1cccc(C(C)(C)O)n1 [AZD1775] (first compound max 1 µM, partner max 1 µM) | -0.0537 | -0.0472 | -0.0561 | 0.0526 | -0.0116 | 0.0064 | -0.009 | -0.0527 | -0.0386 | -0.04 | 0.207 | -0.0425 | -0.0385 | 0.0723
8 | Cc1c2c(nn1C)CSCc1cc(n(C)n1)CSc1cc(c3ccccc3c1)OCCCc1c(C(=O)O)n(C)c3c-2c(Cl)ccc13 [AZD5991] + CCN(CCO)CCCOc1ccc2c(Nc3cc(CC(=O)Nc4cccc(F)c4)[nH]n3)ncnc2c1 [AZD2811] (first compound max 1 µM, 7x7, partner max 1 µM) | 0.101 | -0.0322 | 0.0138 | -0.068 | 0.0024 | 0.0152 | 0.095 | 0.0009 | 0.0059 | -0.0337 | -0.0342 | -0.021 | 0.0247 | 0.0028
9 | COc1cccc(OCCCN)c1-c1cc(Nc2cnc(C#N)cn2)n[nH]1 [Prexasertib] + C=CCn1c(=O)c2cnc(Nc3ccc(N4CCN(C)CC4)cc3)nc2n1-c1cccc(C(C)(C)O)n1 [AZD1775] (first compound max 1 µM, partner max 1 µM) | -0.0318 | 0.128 | 0.0907 | 0.0025 | 0.169 | -0.0285 | 0.0319 | 0.0666 | 0.0573 | 0.0582 | 0.0398 | -0.0496 | 0.0861 | 0.0981
10 | Cc1cc2ncnn2cc1Nc1ncc2c(n1)n(C1CCOCC1)c(=O)n2C [AZD7648] + C[C@@H]1COCCN1C2=NC(=NC(=C2)C3(CC3)[S@](=N)(=O)C)C4=C5C=CNC5=NC=C4 [AZD6738] (first compound max 10 µM, 7x7, partner max 10 µM) | 0.0561 | 0.0426 | -0.0015 | 0.0026 | 0.0176 | 0.0004 | 0.033 | 0.0466 | 0.0867 | 0.0003 | 0.0253 | -0.028 | 0.0727 | -0.0154
11 | COc1cccc(OCCCN)c1-c1cc(Nc2cnc(C#N)cn2)n[nH]1 [Prexasertib] + CN(C)CCCOc1ccc(-c2ccc3ncc4c(c3c2)n(C2CCOCC2)c(=O)n4C)cn1 [AZD0156] (first compound max 1 µM, 7x7, partner max 1 µM) | -0.0158 | -0.0711 | 0.0112 | -0.0496 | 0.0281 | -0.0134 | -0.0139 | 0.0003 | -0.0364 | -0.0341 | -0.045 | -0.0548 | 0 | 0.0118
12 | CCN(CCO)CCCOc1ccc2c(Nc3cc(CC(=O)Nc4cccc(F)c4)[nH]n3)ncnc2c1 [AZD2811] + O=C(c1cc(Cc2n[nH]c(=O)c3ccccc23)ccc1F)N1CCN(C(=O)C2CC2)CC1 [Olaparib] (first compound max 1 µM, 7x7, partner max 10 µM) | -0.0469 | -0.0138 | 0.0471 | -0.0701 | -0.0021 | -0.025 | -0.0474 | -0.0053 | -0.031 | 0.0223 | -0.04 | 0.0084 | 0.0525 | -0.0146
13 | Cc1cc2ncnn2cc1Nc1ncc2c(n1)n(C1CCOCC1)c(=O)n2C [AZD7648] + CN(C)CCCOc1ccc(-c2ccc3ncc4c(c3c2)n(C2CCOCC2)c(=O)n4C)cn1 [AZD0156] (first compound max 10 µM, 7x7, partner max 1 µM) | 0.0062 | -0.0133 | -0.0139 | -0.0046 | -0.0158 | -0.0497 | -0.0115 | -0.0074 | -0.0133 | -0.0486 | 0.0194 | 0.0399 | 0.0228 | 0.0053
14 | CCc1c2c(nc3ccc(O)cc13)-c1cc3c(c(=O)n1C2)COC(=O)[C@]3(O)CC [SN-38] + CN(C)CCCOc1ccc(-c2ccc3ncc4c(c3c2)n(C2CCOCC2)c(=O)n4C)cn1 [AZD0156] (first compound max 0.3 µM, 7x7, partner max 1 µM) | 0.0361 | -0.0165 | 0.149 | -0.104 | 0.05 | -0.0202 | -0.0053 | -0.0241 | -0.0369 | -0.0032 | 0.0969 | 0.117 | 0.0541 | 0.085
15 | C[C@@H]1COCCN1c1cc(C2([S@](C)(=N)=O)CC2)nc(-c2ccnc3[nH]ccc23)n1 [AZD6738] + O=C(c1cc(Cc2n[nH]c(=O)c3ccccc23)ccc1F)N1CCN(C(=O)C2CC2)CC1 [Olaparib] (first compound max 10 µM, 7x7, partner max 10 µM) | 0.0019 | -0.0005 | 0.0226 | -0.0667 | 0.0465 | 0.0071 | -0.0159 | 0.0106 | 0.0137 | 0.013 | 0.0469 | 0.0013 | 0.113 | 0.0645
16 | CN(CCO)CC[C@H](CSc1ccccc1)Nc1ccc(S(=O)(=O)NC(=O)c2ccc(N3CCC([C@@H](O)c4ccccc4-c4ccc(Cl)cc4)CC3)cc2)cc1S(=O)(=O)C(F)(F)F [AZD4320] + CCN(CCO)CCCOc1ccc2c(Nc3cc(CC(=O)Nc4cccc(F)c4)[nH]n3)ncnc2c1 [AZD2811] (first compound max 1 µM, 7x7, partner max 1 µM) | 0.0112 | -0.0325 | 0.0616 | -0.143 | -0.0023 | 0.0047 | 0.0773 | -0.0219 | 0.0119 | 0.0178 | 0.045 | -0.0391 | -0.021 | -0.0204
17 | CCN(CCO)CCCOc1ccc2c(Nc3cc(CC(=O)Nc4cccc(F)c4)[nH]n3)ncnc2c1 [AZD2811] + C=CCn1c(=O)c2cnc(Nc3ccc(N4CCN(C)CC4)cc3)nc2n1-c1cccc(C(C)(C)O)n1 [AZD1775] (first compound max 1 µM, partner max 1 µM) | 0.033 | -0.01 | 0.0107 | -0.0544 | -0.0118 | -0.0847 | 0.0277 | 0.0089 | 0.0064 | -0.0559 | -0.0412 | 0.0034 | 0.0441 | 0.0166
